# Test system: PBMCs of ten HLA-A2+ healthy subjects
# Assay: In vitro stimulation of peptide-specific T cells in PBMCs of healthy subjects, IFN-γ release by ELISA
# Format: cell-based, human
# Conditions: PBMCs stimulated 14 days with peptide 20 μg/mL, response to T2 cells pre-loaded with peptide 5 μg/mL
# Description: Ten HLA-A2+ prostate cancer patients and ten HLA-A2+ healthy subjects were enrolled in this study after written informed consent was obtained. All protocols were approved by the Institutional Review Board (IRB) of Baylor College of Medicine before commencing studies. 20 mL of peripheral blood was obtained from each person, and peripheral blood mononuclear cells (PBMCs) were isolated by density gradient centrifugation using Lymphoprep (Nycomed Pharma AS; Oslo, Norway). The freshly isolated PBMCs were cryopreserved for later use in 1 mL freezing medium containing 90% FCS and 10% dimethyl sulfoxide (DMSO) at −140° C. The expression of HLA-A2 molecules on PBMCs obtained from cancer patients and healthy subjects was verified by flow cytometry with FITC-labeled HLA-A2 mAb BB7.2 (BD Pharmingen, San Diego, Calif., USA).
# PBMCs (1×10^5 cells/well) from either healthy subjects or prostate cancer patients were incubated with standard peptide concentrations of 20 μg/mL per peptide in 96-well U-bottom microplates (BD, Franklin Lakes, N.J., USA) in 200 μL of T-cell medium (TCM), consisting of RPMI 1640 (Mediatech, Manassas, Va., USA), 10% human AB serum (Valley Biomedical, Winchester, USA), 50 μM of 2-mercaptoethanol, 100 U/mL of interleukin-2 (IL-2), and 0.1 mM MEM nonessential amino acid solution (Invitrogen, Grand Island, N.Y., USA). Half of the TCM was removed and replaced with fresh TCM containing peptides (20 μg/mL) every 5 days. After 14 days of culture, the cells were harvested and tested for their ability to produce IFN-γ in response to T2 cells (1×10^4 cells/well), which were pre-loaded with either PSGR peptide (5 μg/mL) or a control peptide (an irrelevant HL-A2 binding peptide: NLLTHVESL) as a negative control. After 18 hours of incubation, supernatants were collected, and IFN-γ release was determined by ELISA assay.
# Cytokine release was measured by coating 96-well ELISA plates (Thermo Fisher Scientific; Rochester, N.Y., USA) with 1 μg/mL anti-human IFN-γ (Pierce Biotechnology; Rockford, Ill., USA) overnight at 4° C. The plate was washed six times with PBS containing 0.05% Tween-20 (wash solution) to remove unbound coating antibody, and blocked with 1% BSA/PBS at room temperature for 2 hrs. Afterwards, 50 μL supernatant was added to each well and incubated at room temperature for 1 hr, then 50 μL of 0.5 μg/mL biotinylated anti-human IFN-γ (Pierce Biotechnology; Rockford, Ill., USA) was added and plates were incubated for an additional 1 hr at room temperature. After incubation, plates were washed and incubated for 30 min with Poly-HRP-Streptavidin (Thermo Fisher Scientific; Rochester, N.Y., USA) diluted 1:5000 in PBS/1% BSA. Plates were washed and 100 μL of TMB substrate solution (Sigma-Aldrich Co.; St. Louis, Mo., USA) was added per well. The colorimetric reaction was stopped using 2N H2SO4 and plates were read at 450 nm using an ELISA plate reader.
# To determine whether PSGR-reactive T cell precursors are present in healthy subjects, we obtained PBMCs from 10 HLA-A2+ healthy donors and stimulated them in vitro with each of the 21 PSGR-derived peptides containing HLA-A2-binding motif (Table 1). After 2 weeks of peptide stimulation, supernatants from peptide-stimulated T cells were analyzed by ELISA assay to detect IFN-γ release in response to T2 cells pulsed with or without corresponding peptides.
Sequence,concentrations of IFN-γ in the supernatants (healthy subject #1) [pg/mL],concentrations of IFN-γ in the supernatants (healthy subject #2) [pg/mL],concentrations of IFN-γ in the supernatants (healthy subject #3) [pg/mL],concentrations of IFN-γ in the supernatants (healthy subject #4) [pg/mL],concentrations of IFN-γ in the supernatants (healthy subject #5) [pg/mL],concentrations of IFN-γ in the supernatants (healthy subject #6) [pg/mL]
TLPRVTKIGV (PSGR23),0,0,0,0,0,0
VLNPIVYGV (PSGR1),195,0,0,0,0,281
GLEEAQFWLA (PSGR12),0,139,0,246,0,432
SLHEPMYIFL (PSGR19),0,0,0,0,195,0
YLLILKTVL (PSGR5),0,0,0,0,0,0
YVPFIGLSMV (PSGR24),0,0,0,0,0,0
VLGNLTIIYI (PSGR21),0,291,0,0,300,377
ALMAPLPVFI (PSGR13),0,0,0,0,0,0
CMLSGIDILI (PSGR17),0,0,0,0,0,0
HVCAVFIFYV (PSGR11),0,0,0,0,0,0
YLIAVLGNLT (PSGR16),602,0,0,0,163,0
SLLISFSYLL (PSGR10),917,0,0,0,0,0
LLQMFAIHSL (PSGR18),176,0,0,0,0,0
LLILKTVLGL (PSGR15),0,0,456,0,0,0
LLAMAFDRYV (PSGR20),0,0,0,0,0,0
FIFYVPFIGL (PSGR22),289,0,0,0,0,0
KLACDDIRV (PSGR2),0,0,455,0,0,0
CLHQDVMKL [PSGR7],0,0,0,0,168,0

# Source: patent US10722563B2, “Prostate-specific tumor antigens and uses thereof” (SHENZHEN INNOVATION IMMUNOTECHNOLOGY CO., LTD., priority 2012, dated 2020)
